From patent US20250134870A1, “PATHWAY MODULATOR, PHARMACEUTICAL COMPOSITION HAVING SAME, USE THEREOF, AND THERAPEUTIC METHOD USING SAME” (Jiangsu Yahong Meditech Co., Ltd., priority 2021, published 2025)
Where two headings read alike, the source gives them in different places.

What was measured:
[1] = tested on: dextran sulfate sodium (DSS)-induced colitis; test: DSS-induced colitis in mice: body weight, DAI score, colon density (Examples 1, 3); assay type: in vivo, C57BL/6J mice; conditions: for Colon density: experimental endpoint
Procedure: 8-10 week old female C57BL/6J mice purchased from Charles River Laboratories were used. The mice were housed in a room at constant temperature (20+2° C.) (5 mice per cage) with a 12-hour light-dark cycle. All protocols were approved by the Institutional Animal Care and Use Committee of WuXi AppTec. These mice were adapted to the housing conditions at the animal experiment center of WuXi AppTec for at least three days prior to the experiment. […] At the experimental endpoint (see hereinafter), mice were euthanized and endpoint samples were obtained. Mice in the normal group were not given 3% DSS aqueous solution to induce colitis and were free to drink blank water. […] The animal body weight and DAI score were assessed under double-blind conditions, that is, the researchers collected the body weight data of mice and observed and scored the stool characteristics and blood stools every day, without knowing the group and dosing regimen. The DAI score was the sum of the weight loss score, stool score and bleeding score. […] The data were analyzed by analysis of variance, specifically by using the following process: using Graph Pad Prism 6.0 software to carry out post-hoc Dunnett's multiple comparison test. […] Data were expressed as mean±S.E.M. The experimental endpoint was 24 hours after administration on Day 8 for the positive drug control group and the Test group 1 #to Test group 7 #of Example 1; the experimental endpoint of the normal group and the solvent group was the same as that of the positive drug control group and Test group 1 #to Test group 7 #.

[2] = tested on: mesenteric lymph node immune cell subpopulations; test: Flow cytometry of immune cell subpopulations and cytokines in mesenteric lymph nodes of DSS colitis mice (Examples 2, 4); assay type: in vivo, C57BL/6J mice; conditions: 100 mg/kg PO QD × 8 days (Test group 7#) vs solvent group
Procedure: The experimental endpoint was 24 hours after administration on Day 8 for the positive drug control group and the Test group 1 #to Test group 7 #of Example 1; the experimental endpoint of the normal group and the solvent group was the same as that of the positive drug control group and Test group 1 #to Test group 7 #.
At the experimental endpoint, mesenteric lymphatic nodes were collected and treated as follows:
1) The mesenteric lymph nodes were gently grinded and filtered with a […] strainer (BD bioscience, Catalog No. 352350) to obtain a cell suspension, and the cells were counted.
2) The cells were suspended in a suspension solution (the suspension solution was prepared by the following process: diluting the cell activation mixture with a mixture of 90 v % 1640 medium and 10 v % fetal bovine serum to a concentration of 1×), the cell density was adjusted to 2.5×10^7/mL, and the cells were incubated at 37° C. for 5 hours. 3) The cells were washed with Dulbecco's Phosphate Buffered Saline, and stained with viable/dead stain (stain No. 12 in Table 5) at room temperature for 15 min to distinguish between viable cells and dead cells; the cells were washed with staining buffer (prepared by mixing fetal bovine serum and Dulbecco's Phosphate Buffered Saline at a volume ratio of 2:98), Fc block working solution (prepared by mixing Fc block and staining buffer at a volume ratio of 1:200) was added, and the cells were incubated at room temperature for 15 minutes.
4) The cells were surface labeled with 100 μL of antibody staining solution for flow cytometry without washing and incubated at 4° C. for 30 minutes.
5) The cells were washed once with staining buffer, 100 μL of cell fixative solution was added, and the cells were incubated at 4° C. overnight.
6) 200 μL of cell permeabilization solution was added and incubated at 4° C. for 30 minutes.
7) After washing with 250 μL of cell permeabilization solution, the cells were suspended with 100 μL of staining buffer and fluorescence was detected with a BD LSRFortessa instrument.
8) The cell subpopulations analyzed by flow cytometry included CD4+ T cell subpopulation, IL-17A+CD4+ T cell subpopulation, IFN-γ+CD4+ T cell subpopulation, TNF-α+CD4+ T cell subpopulation, CD25+FOXP3+ Treg cell subpopulation; CD8+ T cell subpopulation, IL-17A+CD8+ T cell subpopulation, IFN-γ+CD8+ T cell subpopulation, TNF-α+CD8+ T cell subpopulation; CD69+B220+ B cell subpopulation and NK1.1+CD107a+ NK cell subpopulation.

[3] = tested on: norepinephrine level; conditions: cited from earlier work
[4] = 1200 mg; 10 consecutive days; NCT02151994; cited from earlier work
[5] = tested on: 2,4-dinitrobenzenesulfonic acid (DNBS)-induced colitis; test: DNBS-induced colitis in rats: pathological score of colon tissue (H&E); assay type: in vivo, Wistar rats
Excerpt: The proximal, ulcer (corresponding sites can be taken, if there was no ulcer) and distal parts of the colon tissue fixed by neutral buffered formalin were embedded with paraffin, sectioned (thickness 5 μm), and histopathological score was given by H&E staining.

[6] = tested on: 2,4-dinitrobenzenesulfonic acid (DNBS)-induced colitis; test: DNBS-induced enteritis/colitis in rats: body weight and stool score (Example 10); assay type: in vivo, Wistar rats; conditions: positive control drug
Procedure: The 90 animals were randomly grouped on Day-1 (i.e., the day before the experiment) based on animal body weight to ensure that the body weight of each group of animals were similar, so as to reduce bias. Rats were fasted for 40 hours before the experiment and were injected subcutaneously with 5% glucose saline (10 mL/kg, once daily) during fasting. • Experimental grouping:
On Day 1 of the experiment, fasting rats were anesthetized by intraperitoneal injection with Zoletil (25 mg/kg Tiletamine and 25 mg/kg Zolazepam) and 5 mg/kg Xylazine.
In groups G2-G6, a hose was inserted from the anus to left colic flexure (about 8 cm from the anus) and colitis was induced by DNBS enema (0.5 mL/animal) in rats. The normal control group (G1) received 30% ethanol enema by the same process. The head of the animal after enema was lowered for 15 min, and then the animal was kept in Trendelenburg position until waked to avoid backflow of the enema fluid.
The percentage of body weight was calculated according to the following formula: (body weight on Day X-initial weight)/initial weight]×100%.
(2) Stool score: during the experiment, the stool state of rats was scored daily (0=normal, 1=wet/sticky, 2=loose, 3=liquid).

[7] = tested on: 2,4-dinitrobenzenesulfonic acid (DNBS)-induced colitis; test: DNBS-induced colitis in rats: macroscopic evaluation of colon on Day 7 (colon length, weight, ulcer area, CW/CL, CW/BW, CW/CL/BW); assay type: in vivo, Wistar rats; conditions: for inhibition at 9 mg/kg: Rattus norvegicus, 168 h
Procedure: (3) Colon observation: after the end of the experiment, all animals were anesthetized with Zoletil (intravenous injection, 25 mg/kg) and the abdominal cavity was opened. Blood was collected from the abdominal aorta with EDTA anticoagulation (centrifugation conditions: 4° C., 2,000 g, 10 min). After the animals were sacrificed by bloodletting, the colon (from the cecum to the anus) was dissected and the colon length was measured immediately. The colon was longitudinally incised and rinsed until clean. Then the colon weight and ulcer area were recorded, and the colon was photographed as a whole and divided into three parts, among which two parts were stored at −80° C. after flash freezing with liquid nitrogen for MPO and cytokine detection, and the other part of colon was fixed with 10% neutral buffered formalin. If the ulcer was irregularly shaped, it could be considered as rectangular, and then its length and width were measured for ulcer area assessment. Ulcer area (cm^2)=ulcer length (cm)×ulcer width (cm).

[8] = rats with spontaneous hypertension

With `Fc1cc(F)c2c(c1)C[C@@H](n1c(CCNCc3ccccc3)c[nH]c1=S)CO2` [Zamicastat] the “Body weight on Day 7, g” value ([1]; 10 mg/kg PO QD × 8 days) was 19.26 g, the “Body weight on Day 7/initial body weight, %” value ([1]; 10 mg/kg PO QD × 8 days) was 91.68% and the “Body weight on Day 8, g” value ([1]; 10 mg/kg PO QD × 8 days) was 18.37 g. The “Body weight on Day 8/initial body weight, %” value ([1]; 10 mg/kg PO QD × 8 days) was 87.45%, the “DAI score on Day 8” value ([1]; 10 mg/kg PO QD × 8 days) was 6.30 and the “Body weight on Day 7, g” value ([1]; 30 mg/kg PO QD × 8 days) was 18.96 g. The “Body weight on Day 7/initial body weight, %” value ([1]; 30 mg/kg PO QD × 8 days) was 91.04%, the “Body weight on Day 8, g” value ([1]; 30 mg/kg PO QD × 8 days) was 17.78 g and the “Body weight on Day 8/initial body weight, %” value ([1]; 30 mg/kg PO QD × 8 days) was 85.35%. The “DAI score on Day 8” value ([1]; 30 mg/kg PO QD × 8 days) was 6.30, the “Body weight on Day 7, g” value ([1]; 100 mg/kg PO QD × 8 days) was 19.66 g and the “Body weight on Day 8, g” value ([1]; 100 mg/kg PO QD × 8 days) was 18.75 g. For the same compound, the “Body weight on Day 8/initial body weight, %” value ([1]; 100 mg/kg PO QD × 8 days) was 89.17%, the “DAI score on Day 8” value ([1]; 100 mg/kg PO QD × 8 days) was 5.20 and the “severity of DSS-induced colitis and disease activity” value ([1]; Nepicastat 30, Etamicastat 100, Zamicastat 100 mg/kg PO QD × 8 days (Test groups 1#, 4#, 7#) vs solvent group) was “ameliorated the severity of DSS-induced colitis and reduced disease activity”. The “Colon density” value ([1]; 10 mg/kg PO QD × 8 days) was 35.04 mg/cm, the “Colon density” value ([1]; 30 mg/kg PO QD × 8 days) was 36.37 mg/cm and the “proportion of CD4+ T cell subpopulation” value [2] was “reduce the proportion”. For the same compound, the “proportion of CD25+FOXP3+ Treg cell subpopulation” value [2] was “increase the proportion”, the “secretion of IFN-γ by CD4+ T cell subpopulation” value [2] was “reduce the secretion” and the “secretion of IL-17A by CD4+ T cell subpopulation” value [2] was “reduce the secretion”. The “secretion of TNF-α by CD4+ T cell subpopulation” value [2] was “reduce the secretion”, the brain-blood-barrier penetration ([3]; compared with Nepicastat) was “lower levels of brain-blood-barrier penetration” and the “effect on brain tissue (norepinephrine level)” value [3, 8] was “no effect on brain tissue”. The “norepinephrine level in peripheral sympathetic innervation tissues” value [3, 8] was “reduce the norepinephrine level in peripheral sympathetic innervation tissues” and the safety [4] was “relatively good safety”.
With `C[C@]12C=CC(=O)C=C1CC[C@@H]1[C@@H]2C(=O)C[C@@]2(C)[C@H]1CC[C@]2(O)C(=O)CO` [Prednisone] the “Pathological score, Distal end, Damage” value ([5]; mean, G3, 9 mg/kg PO QD × 7) was 1.33, the “Pathological score, Distal end, Inflammation” value ([5]; mean, G3, 9 mg/kg PO QD × 7) was 2.00 and the “Pathological score, Proximal end, Damage” value ([5]; mean, G3, 9 mg/kg PO QD × 7) was 0.80. For the same compound, the “Pathological score, Proximal end, Inflammation” value ([5]; mean, G3, 9 mg/kg PO QD × 7) was 1.73, the “Pathological score, Total score, Damage” value ([5]; mean, G3, 9 mg/kg PO QD × 7) was 4.00 and the “Pathological score, Total score, Inflammation” value ([5]; mean, G3, 9 mg/kg PO QD × 7) was 6.07. The “Pathological score, Ulcer end, Damage” value ([5]; mean, G3, 9 mg/kg PO QD × 7) was 1.87, the “Pathological score, Ulcer end, Inflammation” value ([5]; mean, G3, 9 mg/kg PO QD × 7) was 2.33 and the “inflammatory cell infiltration score of colon ulcer end” value ([5]; positive control drug) was “significantly reduce”. For the same compound, the “stool form score AUC” value [6] was “significantly reduce”, the inhibition at 9 mg/kg ([7]; G3, 9 mg/kg PO QD × 7, read-out: IR1 (inhibition rate 1, CW/CL/BW)) was 44.2% and the inhibition at 9 mg/kg ([7]; G3, 9 mg/kg PO QD × 7, read-out: IR2 (inhibition rate 2, CW/BW)) was 50.1%. For the same compound, the inhibition at 9 mg/kg ([7]; G3, 9 mg/kg PO QD × 7, read-out: IR3 (inhibition rate 3, CW/CL)) was 46.5%, the BW ([7]; mean, G3, 9 mg/kg PO QD × 7) was 162.92 g and the “CW/BW ×100” value ([7]; mean, G3, 9 mg/kg PO QD × 7) was 0.99. It also gave a Ulcer area ([7]; mean, G3, 9 mg/kg PO QD × 7) of 1.26 cm^2, a Ulcer length ([7]; mean, G3, 9 mg/kg PO QD × 7) of 0.77 cm and a Ulcer width ([7]; mean, G3, 9 mg/kg PO QD × 7) of 0.85 cm. For the same compound, the colon weight ([7]; positive control drug) was “significantly reduce”.
